Literature values in patent US12070503B2, “Transdermal carrier” (priority 2014, dated 2024).

Columns and labels:
HSV-infected cells = settings: compared with alternatives such as Abreva
[1] = difficult to measure, considered generally
hair follicles = settings: concentrations of 2% and 5%; published studies

Nc1nc2c(ncn2CCC(CO)CO)c(=O)[nH]1 [Penciclovir, penciclovir]
effectiveness against HSV-infected cells (HSV-infected cells): more effective

C[C@H](CCC(=O)O)[C@H]1CC[C@H]2[C@@H]3CC[C@@H]4C[C@H](O)CC[C@]4(C)[C@H]3C[C@H](O)[C@]12C [DCA, deoxycholic acid]
half-life [1]: less than 30 minutes

Nc1cc(N2CCCCC2)nc(N)[n+]1[O-] [minoxidil]
treatment time before evidence of hair growth was demonstrated (hair follicles): > 8 months
